Values quoted from earlier work in US20020155997A1 (priority 2000, published 2002).

Test system: bovine plasma
Settings: reference standard

In the case of dextran sulfate, the “anticoagulant activity of the standard” value is given as 25 units/mg.
